Laboratory results as given in the NIST ThermoML archive (doi:10.1021/acs.jced.6b00429).
± gives the expanded uncertainty stated by the source.

Conditions: Liquid, Ebulliometric method (Recirculating still)

| SMILES | vapor or sublimation pressure (394.71 K) [kPa] | vapor or sublimation pressure (400.93 K) [kPa] | vapor or sublimation pressure (406.16 K) [kPa] | vapor or sublimation pressure (365.01 K) [kPa] | vapor or sublimation pressure (370.79 K) [kPa] | vapor or sublimation pressure (375.66 K) [kPa] |
| --- | --- | --- | --- | --- | --- | --- |
| OCC(F)(F)C(F)(F)C(F)(F)C(F)F [2,2,3,3,4,4,5,5-octafluoro-1-pentanol] | 53.3 ± 0.5 | 66.7 ± 0.5 | 80 ± 0.6 |  |  |  |
| OCC(F)(F)C(F)F [2,2,3,3-tetrafluoro-1-propanol] |  |  |  | 53.3 ± 0.5 | 66.7 ± 0.5 | 80 ± 0.6 |
